According to ChEMBL document CHEMBL1153785, “Antimalarial activity of azafluorenone alkaloids from the Australian tree Mitrephora diversifolia” (J Nat Prod, 2009):

Legend:
[1] = test system: Plasmodium falciparum; assay: Antimalarial activity against chloroquine-sensitive Plasmodium falciparum 3D7 after 72 hrs by DAPI staining method; assay type: functional, organism-based; conditions: 3D7, 72 h
[2] = Cytotoxicity against human HEK293 cells at 120 uM after 72 hrs by Alamar blue assay; assay type: cell-based; conditions: read-out: GI
[3] = test system: Plasmodium falciparum; assay: Antimalarial activity against chloroquine-resistant Plasmodium falciparum Dd2 after 72 hrs by DAPI staining method; conditions: Dd2, 72 h
[4] = test system: Plasmodium falciparum; assay: Antimalarial activity against chloroquine-sensitive Plasmodium falciparum 3D7 at 120 uM after 72 hrs by DAPI staining method; assay type: functional
[5] = test system: Plasmodium falciparum; assay: Antimalarial activity against chloroquine-resistant Plasmodium falciparum Dd2 at 120 uM after 72 hrs by DAPI staining method
[6] = test system: HEK293; assay: Cytotoxicity against human HEK293 cells up to 120 uM after 72 hrs by Alamar blue assay; assay type: cell-based; conditions: hek293, 72 h

COc1ccc2c(c1O)-c1nccc(C)c1C2=O
IC50 [1]: 9.9 µM
inhibition at 72 h, 120 µM [2]: 96%
IC50 [3]: 11.4 µM

COc1cc(O)c2c(c1O)-c1nccc(C)c1C2=O
Activity [4]: 87%
Activity [5]: 80%
Activity [6]: Non-toxic
